Measured values from patent US20250269072A1, “PROCESSES FOR PREPARING RADIOLABELLED CONJUGATES” (CENTENARY INSTITUTE OF CANCER MEDICINE AND CELL BIOLOGY, priority 2021, published 2025).
Like-named read-outs stand apart in the source and are kept apart here.

Key:
[1] = cited from earlier work
[2] = system: proliferating cells; details: cited from earlier work
[3] = system: angiogenesis; details: in vivo; cited from earlier work
[4] = system: quiescent endothelial cells; details: quiescent endothelial cells in vitro; cited from earlier work
[5] = In vitro stability of labelled NODAGA-GSAO products at room temperature (HPLC); format: physicochemical
Experimental: The in vitro stability of the complexed product is an important determinant for the potential clinical use of a therapeutic compound. Post-labelling stability was assessed by incubation of the ^175Lu- and ^63Cu-labelled NODAGA-GSAO products at room temperature.
The percentage of labelling at different time-points following formation of the isotope-NODAGA-GSAO complex was measured. Results are shown in FIG. 5 for A) the ^175Lu-labelled product obtained from incubation for 30 minutes at pH 5.0 at 80° C. and B) the ^63Cu-labelled product obtained from incubation for 30 minutes at pH 5.0 at room temperature. At certain time points, aliquots were taken and the labelling (black circles) of NODAGA-GSAO were assessed by HPLC. Data are from one or two (average±S.D. of the two measurements) experiments.

[6] = Radiolysis of ^177Lu-CDI after synthesis (radio-HPLC); format: physicochemical
Experimental: Labelling of CDI (54 μg) with ^177Lutetium (^177Lu) was performed in 0.083 M sodium acetate buffer at pH 5.0. 177Lu (500 MBq) and ascorbic acid (0.002 M) were added and the mixture was incubated at 85° C. for 30 min. In a similar reaction, CDI was labelled with ^177Lu in the presence of 0.01 M ascorbic acid and 0.028 M GSH.
The experiments using the radioisotope ^177Lu were performed on a Shimadzu LC-20 series LC system with two LC-20AP pumps, an SPD-20A UV/VIS detector and analysed using the LabLogic Laura software (version 4.2.11.129 SP2). […] The analytical column was an Alltima HP C18 150×4.6 mm 5 μm particle size (Hichrom, Berkshire, UK). The column was equilibrated in a mixture of 0.1% (v/v) trifluoroacetic acid in MiliQ water (mobile phase A) and acetonitrile (mobile phase B; 98/2, v/v). Samples (100 μL) were loaded on the column using the autosampler at room temperature. Products were eluted using a gradient of […] mobile phase B in mobile phase A over 0-18-28-38-42 min (^177Lu) or 0-18-28-32-33 min (^175Lu) at a flowrate of 0.6 mL/min. Absorbance was measured at 210 nm, 256 nm, and 280 nm and radioactivity was detected using a LabLogic Dual Scan-RAM.

[7] = ^177Lu-CDI dosimetry estimated from ^68Ga-CDI biodistribution and kinetics; design: species or system human
Text: The biodistribution and kinetics of ^68Ga-CDI was used to estimate […] dosimetry. […] These are similar to measured renal doses from ^177Lu-dotatate and ^177Lu-PSMA. Based on these estimations and comparability of renal dose to ^177Lu-dotatate and ^177Lu-PSMA, the initial […] level of ^177Lu-CDI will be approximately 2.0 GBq.

[8] = Afshar-Oromieh et al., 4 subjects

In the case of O=C([O-])CN(CCN(CC(=O)[O-])Cc1cc(CCC(=O)NCCCCCC(=O)NCCCC[C@H](NC(=O)N[C@@H](CCC(=O)O)C(=O)O)C(=O)O)ccc1[O-])Cc1cc(CCC(=O)O)ccc1[O-].[68Ga+3].[OH3+] [^68Ga PSMA], the mean effective dose [1, 8] is given as 2.3E-02 mSv/MBq, the renal dose [1, 8] is given as 2.6E-01 mSv/MBq and the urinary bladder dose [1, 8] is given as 1.3E-01 mSv/MBq. For the same molecule, the Effective Dose ([1]; Pfob et al., 5 subjects) was 2.37E-02 mSv/MBq, the renal dose ([1]; Pfob et al., 5 subjects) was 1.21E-01 mSv/MBq and the urinary bladder dose ([1]; Pfob et al., 5 subjects) was 1.64E-01 mSv/MBq.

In the case of N[C@@H](CCC(=O)N[C@@H](CSCC(=O)Nc1ccc([As](O)O)cc1)C(=O)NCC(=O)O)C(=O)O [GSAO, 4-(N—(S-glutathionylacetyl)amino)phenylarsenous acid], the toxicity [2] is given as “toxic to proliferating cells”, the effect on angiogenesis [3] is given as “inhibits angiogenesis in vivo” and the toxicity [4] is given as “nontoxic to quiescent endothelial cells in vitro”.

In the case of O=C(O)CNC(=O)[C@H](CSCC(=O)Nc1ccc([As](O)O)cc1)NC(=O)CC[C@H](NC(=O)CCC1C(=O)[O][175Lu]2[O]C(=O)CN3CCN(CCN1CC3)CC(=O)[O]2)C(=O)O (stereo partly drawn) [^175Lu-NODAGA-GSAO], the by-products ([5]; room temperature storage) is reported as 4-7.5 % of total AUC and the labelling remaining ([5]; room temperature, after 14 days of storage) is reported as roughly 90%.

With O=C(O)CNC(=O)[C@H](CSCC(=O)Nc1ccc([As](O)O)cc1)NC(=O)CC[C@H](NC(=O)CCC1C(=O)[O][177Lu]2[O]C(=O)CN3CCN(CCN1CC3)CC(=O)[O]2)C(=O)O (stereo partly drawn) [^177Lu-NODAGA-GSAO] the radiolysis after synthesis ([6]; […] incubation at room temperature, 0.002 M ascorbic acid) was “did not show an increase in radiolysis”, the radiolysis ([6]; labelling in presence of 0.01 M ascorbic acid and 0.028 M GSH) was “prevented radiolysis during and up to 72 h post CDI labelling” and the estimated renal dose ([7]; combined physical decay and biological clearance model) was 0.36 mGy/MBq. It also gave an estimated renal dose ([7]; physical decay only model) of 0.98 mGy/MBq.
